{
  "source": "paper PMC4491176",
  "about": "“Caenorhabditis elegans is a useful model for anthelmintic discovery” (Nature Communications, 2015)",
  "key": {"[1]": {"test_system": "C. elegans", "assay": "C. elegans liquid-based chemical screening of the wactive library", "type": "in vivo, Caenorhabditis elegans", "parameters": "key: 1 = yes", "protocol": "(§1) The 96-well liquid-based chemical screening assay was adapted from an established RNAi screening protocol. Briefly, saturated HB101 Escherichia coli culture was concentrated 2-fold using NGM (nematode growth media) containing 3 mg ml^−1 NaCl, 2.5 mg ml^−1 peptone, 5 μg ml^−1 cholesterol, 1 mM CaCl2, 1 mM MgSO4 and 25 mM KH2PO4. A total of 40 μl of NGM+HB101 was dispensed into each well of a 96-well plate, and chemicals were pinned into the wells using a pinning tool with a 300 nl slot volume (V&P Scientific). Approximately 20 synchronized first larval-stage (L1) worms, in 10 μl of M9 buffer (see ref. [24] for the recipe), were then added to each well. The synchronized L1s were obtained from an embryo preparation (see ref. [24] for the protocol) performed the previous day. The final concentration of dimethyl sulfoxide (DMSO) in the wells was 0.6% v/v. A dissection microscope was used to visualize the wells either 5 or 6 days post worm deposition and any obvious chemical-induced phenotypes were noted.\nFor our preliminary screens, 50,596 out of 67,012 compounds were assayed in liquid at a 60 μM concentration, and the other 16,416 molecules were screened on solid media at 25 μM (see ref. [24] for a description of our solid-based screening method). […]"}, "[2]": {"test_system": "C. onchophora", "assay": "C. oncophora egg hatch chemical screen", "type": "in vivo, Cooperia onchophora", "parameters": "key: 1 = yes", "settings": "90-100% lethal at 7.5 or 60 μM", "protocol": "(§2) Fresh cattle and sheep faeces containing eggs of an ivermectin-resistant strain of C. onchophora[39] and the MHco3(ISE) strain of H. contortus, respectively, were kindly supplied by Dr Doug Colwell and Dawn Gray (Lethbridge Research Station, Agriculture and Agri-Food Canada). Experimental infections used to generate this material were carried out using established methods, and were approved by the Lethbridge AAFC Animal Care committee and conducted under animal use license ACC1407. Cattle faeces containing C. onchophora eggs were stored anaerobically at 4 °C for a maximum of 3 weeks, whereas sheep faeces containing H. contortus eggs were stored at 20 °C for no more than 48 h before harvesting eggs for use. Eggs were isolated from faeces using a standard saturated salt flotation method[42] immediately before each egg hatch assay. Approximately 100 eggs suspended in 100 μl of water were added to each well of a 96-well plate, and the wactive library chemicals were screened at two different concentrations (7.5 and 60 μM, 0.6% DMSO v/v). Baseline egg hatch rates were determined in DMSO control wells ∼48 h after the initial set-up of the assay by the addition of iodine tincture to stop development. […] A dissection microscope was used for visualization purposes."}, "[3]": {"test_system": "wact-11-family resistant C. elegans mutants (RP2674, RP2698 and others)", "assay": "96-well liquid-based dose-response (in vivo LD100), wact-11-family resistant mutants", "settings": "liquid dose-response of resistant mutants versus N2", "protocol": "as §1\nThe 96-well liquid-based assay was also used for all follow-up dose-response experiments in this work. These experiments were carried out in quadruplicate, and the total number of worms in each well was counted 6 days after worm deposition."}, "[4]": {"test_system": "HEK293T cells", "assay": "HEK293 cell proliferation (BrdU) chemical screening", "type": "cell-based", "settings": "60 μM, BrdU normalized signal <0.16", "protocol": "HEK293T cells (Attisano Lab, University of Toronto) were maintained in Dulbecco's Modified Eagle's Medium (Gibco) supplemented with 10% FBS (DMEM-10% FBS). Cells at a concentration of 50 cells μl^−1 were seeded into 96-well plates at a final volume of 100 μl (∼5,000 cells per well). Chemicals from the wactive library were added to the wells for a final concentration of 60 μM (0.6% DMSO v/v). The wactive library plates were screened at least in triplicate. Cell proliferation was determined using a bromodeoxyuridine (BrdU) assay kit (Exalpha Biologicals Inc.). The BrdU was added 2 days after chemical addition. Fixation and denaturation was performed ∼16–18 h later. Anti-BrdU antibody was added, and incorporated BrdU was detected using a horseradish peroxidase-conjugated goat anti-mouse antibody. The BrdU incorporation signal was measured at 450/550 nm for the amount of conversion of tetra-methylbenzidine that is proportional to the amount of BrdU incorporated. For each replicate of each plate, the average signal for the DMSO control wells was calculated. For each well in the plate (including the DMSO control wells), the signal was normalized by dividing by the average DMSO signal. The mean and standard deviation for the population of 960 normalized sample signals of the 10-plate wactive library were calculated and found to be […] and 0.44, respectively."}, "[5]": {"test_system": "H. contortus", "assay": "H. contortus egg hatch chemical screen", "type": "in vivo, Haemonchus contortus", "settings": "90-100% lethal at 7.5 or 60 μM", "protocol": "as §2"}, "[6]": {"test_system": "D. rerio", "assay": "Zebrafish embryo chemical screening", "type": "in vivo, Danio rerio (zebrafish)", "settings": "embryos, 10 μM, death or toxicity at 24 and 48 h post fertilization", "protocol": "Wild-type (AB) zebrafish embryos were collected in E3 solution (5 mM NaCl, 0.17 mM KCl, 0.33 mM CaCl2, 0.33 mM MgSO4) immediately after fertilization and arrayed at three embryos per well in 96-well plates, 200 μl per well. Wild-type (AB) zebrafish were originally obtained from Zebrafish International Resource Center (University of Oregon). Chemicals were added to each well at 6 h post fertilization at a final concentration of 10 μM (0.5% v/v DMSO), with each plate containing nine wells of DMSO controls. Embryos were examined for mortality and observable developmental phenotypes at 24 and 48 h post fertilization using an Olympus SZX10 Brightfield microscope. Phenotypes examined were death, developmental delay, reduced pigmentation, cranial oedema or cardiac defects (slow/absent heart rate, abnormal heart size). Each compound was screened in duplicate, with only phenotypes appearing in both replicates associated with a given compound. Any compound producing multiple, distinct phenotypes across replicates (for example, cardiac defects in one replicate, mortality in another) was labelled ‘toxic'. A molecule was considered ‘lethal' to zebrafish if it induced ‘death' or ‘toxicity'."}, "[7]": {"test_system": "three nematode species, zebrafish and HEK cells", "assay": "Grouping by phylogenetic bioactivity profile (multi-organism screening pipeline)", "parameters": "key: Group 1 molecules are lethal to only one or two of the three nematode species tested, but are non-lethal to zebrafish and HEK cells.; Group 2 molecules are lethal to all three nematode species, but are non-lethal to zebrafish and human cells.; Group 3 molecule are lethal to fish or HEK cells, regardless of their nematode bioactivity profile", "settings": "nematode selectivity and cross-species lethality group", "from_the_text": "To further characterize our 275 C. elegans-lethal molecules, we organized them into three separate groups based on their phylogenetic bioactivity profiles (Fig. 2a). Group 1 contains 102 molecules that are lethal to only one or two of the three nematode species tested, but are non-lethal to zebrafish and HEK cells. Group 2 contains 67 compounds that are lethal to all three nematode species, but are non-lethal to zebrafish and human cells. Group 3 contains the remaining 106 compounds that are lethal to fish or HEK cells, and have varied bioactivity in different nematode species. In particular, the 67 molecules in group 2 represent potentially ideal anthelmintic leads; they have activity across multiple nematode species, and appear not to affect vertebrates."}},
  "data": [
    {"smiles": "Brc1ccc(-c2noc(-c3cccs3)n2)cc1", "note": "[wact-2]", "values": [
      {"measurement": "C. elegans Lethal (1 = yes)", "setting": "[1]; 100% lethality at 60 μM or less", "result": 1},
      {"measurement": "Wactive (1 = yes)", "setting": "[1]; induces obvious phenotype in C. elegans at 60 μM or less", "result": 1},
      {"measurement": "C. onchophora Lethal (1 = yes)", "setting": "[2]", "result": 1},
      {"measurement": "Resistance of wact-11-family resistant mutants to compound-induced lethality (in words)", "setting": "[3]", "result": "not"},
      {"measurement": "HEK Cell Growth Decrease (1 = yes)", "setting": "[4]", "result": 0},
      {"measurement": "H. contortus Lethal (1 = yes)", "setting": "[5]", "result": 0},
      {"measurement": "D. rerio Lethal (1 = yes)", "setting": "[6]", "result": 0},
      {"measurement": "Group # (Bioactivity Group #)", "setting": "[7]", "result": 1}
    ]}
  ]
}
